Consider 8 molecules from US20220267352A1, “RAPAMYCIN ANALOGS AND USES THEREOF” (Anakuria Therapeutics, Inc., priority 2021, published 2022).

Assay [1] relates to pS6K1 T389 and pAkt S473 in PC3 cells. Briefly: Western blot based pS6K1 and pAKT assay at 24 and 48 hour timepoints. Type of assay: cell-based. The method, then:
Example 57: Western Blot Based pS6K1 and pAKT Assay at 24 and 48 Hour Timepoints
Assay Protocol: • 1. Seed six well plate with 500,000 PC3 cells per well and incubate for 20˜24 hour. • 2. Add compounds into the cell plate. Incubate for 24 to 48 hours. • 4. Plate is placed on ice and the media is removed via aspiration. The wells are washed with 1 mL of 1x PBS and then fully aspirated. • 5. 110 μL of 1% Triton Lysis Buffer is added and each well is scraped vigorously. • 6. Cell homogenates are transferred to 1.5 mL eppendorf tubes on ice and spun down at 4° C. for 10 minutes at 10,000 rpm. • 7. Protein concentration of resulting cell lysates were quantified utilizing a Bradford assay and the samples run analyzed via Western blot on 4-12% Bis/Tris gels with 1×MES buffer. • 8. The gels were transferred onto membranes at 50V for 100 minutes, blocked with Odyssey Blocking buffer for 30 minutes then incubated overnight with primary antibody (pS6K1 T389 Rabbit or pAkt S473 Rabbit) overnight at 4° C. on a rotator. • 9. The membranes were washed 3× with TBS-T with a 5 minute incubation between each wash then incubated with secondary antibody (LiCor IRDye 800 Donkey Anti Rabbit) for at least 30 minutes. • 10. The membranes were washed 3× with TBS-T with a 5 minute incubation between each wash. • 11. The gels were then incubated for 5 minutes with PBS at room temperature then imaged using a Li-Cor.
Compounds that are not selective by comparing pS6K1 and pAKT IC50 by kinase assays are indicated by “NO” in the “mTORC1 selective @ 90 min” column of Table 4. […] Compounds that are not selective at the 24 hrs mark are indicated by “NO” in the “mTORC1 selective @ 24 hrs” column of Table 4. “N/A” stands for “not assayed” and “N/C” stands for “not calculated”.
Background: A western blot detects proteins with antibodies after separation by electrophoresis.

Assay [2] concerns p-p70 S6 Kinase (Thr389) in MCF-7 cells. Briefly: AlphaLISA Ultra pS6K1 assay. Particulars: Homo sapiens, 1.5 h; MCF7 cells, 90 min. Type of assay: cell-based. Put shortly: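 Phospho-S6K1 (Thr389) quantified by AlphaLISA Ultra read-out (2 h acceptor, then 2 h donor beads) in lysates of MCF-7 cells. Cells were plated 20–24 h before, refed 2 h, exposed to compounds for 90 min at 0.5% final DMSO, and lysates stored at −80 °C.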
Background: Bead proximity is the source of the signal in Alpha formats.

In general, IC50 refers to the concentration that inhibits the measured activity by half. Turning to `CO[C@@H]1/C(C)=C/[C@@H](C)C(=O)C[C@@H]([C@H](C)C[C@@H]2CC[C@@H](OCCO)[C@H](OC)C2)OC(=O)[C@@H]2CCCCN2C(=O)C(=O)[C@]2(O)O[C@@H](CC[C@H]2C)C[C@H](OCCOCCOC2COC2)/C(C)=C/C=C/C=C/[C@@H](C)C[C@@H](C)C(=O)[C@@H]1OC` [I-62, (1R,9S,12S,15R,16E,18R,19R,21R,23S,24E,26E,28E,30S,32S,35R)-1-hydroxy-12-[(1R)-2-[(1S,3R,4R)-4-(2-hydroxyethoxy)-3-methoxy-cyclohexyl]-1-methyl-ethyl]-18,19-dimethoxy-15,17,21,23,29,35-hexamethyl-30-[2-[2-(oxetan-3-yloxy)ethoxy]ethoxy]-11,36-dioxa-4-azatricyclo[30.3.1.0^4,9]hexatriaconta-16,24,26,28-tetraene-2,3,10,14,20-pentone], the “mTORC1 selective @ 24 hrs” value in assay [1] was “No”. In assay [2], this molecule registered an IC50 of 0.1 to 1 µM.
For `COCCS(=O)(=O)CCO[C@H]1C[C@@H]2CC[C@@H](C)[C@@](O)(O2)C(=O)C(=O)N2CCCC[C@H]2C(=O)O[C@H]([C@H](C)C[C@@H]2CC[C@@H](OC)[C@H](OC)C2)CC(=O)[C@H](C)/C=C(\C)[C@@H](OC)[C@@H](OC)C(=O)[C@H](C)C[C@H](C)/C=C/C=C/C=C/1C` [I-43, (24E,26E,28E,29E,35R,36S,37R,38R,40S,42S,44S,45S,46R,47R,56R)-45-[(1R)-2-[(1S,3R,4R)-3,4-dimethoxycyclohexyl]-1-methyl-ethyl]-56-hydroxy-46,47-dimethoxy-44-[2-(2-methoxyethylsulfonyl)ethoxy]-35,36,37,38,48,49-hexamethyl-66,67-dioxa-57-azatricyclohexatriaconta-24,26,28(48),29(49)-tetraene-50,51,52,53,54-pentone], the “mTORC1 selective @ 24 hrs” value in assay [1] was “Yes”. The IC50 in assay [2] is 0.01 to 0.1 µM.
On the same counts, the results for `COCCO[C@@H]1CC[C@@H](C[C@@H](C)[C@@H]2CC(=O)[C@H](C)/C=C(\C)[C@@H](O)[C@@H](OC)C(=O)[C@H](C)C[C@H](C)/C=C/C=C/C=C(\C)[C@@H](OC[C@H]3COCCO3)C[C@@H]3CC[C@@H](C)[C@@](O)(O3)C(=O)C(=O)N3CCCC[C@H]3C(=O)O2)C[C@H]1OC` [I-64, (1R,9S,12S,15R,16E,18R,19R,21R,23S,24E,26E,28E,30S,32S,35R)-30-[[(2R)-1,4-dioxan-2-yl]methoxy]-1,18-dihydroxy-19-methoxy-12-[(1R)-2-[(1S,3R,4R)-3-methoxy-4-(2-methoxyethoxy)cyclohexyl]-1-methyl-ethyl]-15,17,21,23,29,35-hexamethyl-11,36-dioxa-4-azatricyclo[30.3.1.0^4,9]hexatriaconta-16,24,26,28-tetraene-2,3,10,14,20-pentone] are “Yes” and 0.001 to 0.01 µM.
The like results for `CO[C@@H]1C[C@H](C[C@@H](C)[C@@H]2CC(=O)[C@H](C)/C=C(\C)[C@@H](O)[C@@H](OC)C(=O)[C@H](C)C[C@H](C)/C=C/C=C/C=C(\C)[C@@H](OCCOC3COC3)C[C@@H]3CC[C@@H](C)[C@@](O)(O3)C(=O)C(=O)N3CCCC[C@H]3C(=O)O2)CC[C@H]1OC(=O)NCCN1CCOCC1` [I-21, [(42S,44R,46R)-4-[(2R)-2-[(27E,29E,31E,32E,38R,39S,40R,41R,43S,45S,47S,48S,50R,51R,61R)-50,61-dihydroxy-51-methoxy-38,39,40,41,52,53-hexamethyl-47-[2-(oxetan-3-yloxy)ethoxy]-54,55,56,57,58-pentaoxo-75,76-dioxa-64-azatricyclohexatriaconta-27,29,31(52),32(53)-tetraen-48-yl]propyl]-46-methoxy-44-cyclohexyl] N-(2-morpholinoethyl)carbamate] were, in that order, “Yes” and less than 0.001 µM.
The like results for `CO[C@@H]1C[C@H](C[C@@H](C)[C@@H]2CC(=O)[C@H](C)/C=C(\C)[C@@H](O)[C@@H](OC)C(=O)[C@H](C)C[C@H](C)/C=C/C=C/C=C(\C)[C@@H](OCCOC3COC3)C[C@@H]3CC[C@@H](C)[C@@](O)(O3)C(=O)C(=O)N3CCCC[C@H]3C(=O)O2)CC[C@H]1OCCCN1CCOCC1` [I-14, (27E,29E,31E,32E,39R,40S,41R,42R,44S,46S,48S,49S,51R,52R,61R)-51,61-dihydroxy-52-methoxy-49-[(1R)-2-[(1S,3R,4R)-3-methoxy-4-(3-morpholinopropoxy)cyclohexyl]-1-methyl-ethyl]-39,40,41,42,53,54-hexamethyl-48-[2-(oxetan-3-yloxy)ethoxy]-73,74-dioxa-63-azatricyclohexatriaconta-27,29,31(53),32(54)-tetraene-55,56,57,58,59-pentone] were, in that order, “Yes” and less than 0.001 µM.
Consider `COCCOCCO[C@H]1C[C@@H]2CC[C@@H](C)[C@@](O)(O2)C(=O)C(=O)N2CCCC[C@H]2C(=O)O[C@H]([C@H](C)C[C@@H]2CC[C@@H](OCCO)[C@H](OC)C2)CC(=O)[C@H](C)/C=C(\C)[C@@H](OC)[C@@H](OC)C(=O)[C@H](C)C[C@H](C)/C=C/C=C/C=C/1C` [I-37, (23E,25E,27E,28E,36R,37S,38R,39R,41S,43S,45S,46S,47R,48R,57R)-57-hydroxy-46-[(1R)-2-[(1S,3R,4R)-4-(2-hydroxyethoxy)-3-methoxy-cyclohexyl]-1-methyl-ethyl]-47,48-dimethoxy-45-[2-(2-methoxyethoxy)ethoxy]-36,37,38,39,49,50-hexamethyl-66,67-dioxa-58-azatricyclohexatriaconta-23,25,27(49),28(50)-tetraene-51,52,53,54,55-pentone], for which the “mTORC1 selective @ 24 hrs” value in assay [1] is “Yes”. The IC50 in assay [2] fell in the range of 0.001 to 0.01 µM.
On the same counts, the results for `COCCO[C@@H]1CC[C@@H](C[C@@H](C)[C@@H]2CC(=O)[C@H](C)/C=C(\C)[C@@H](O)[C@@H](OC)C(=O)[C@H](C)C[C@H](C)/C=C/C=C/C=C(\C)[C@@H](OC[C@@H]3COCCO3)C[C@@H]3CC[C@@H](C)[C@@](O)(O3)C(=O)C(=O)N3CCCC[C@H]3C(=O)O2)C[C@H]1OC` [I-66, (1R,9S,12S,15R,16E,18R,19R,21R,23S,24E,26E,28E,30S,32S,35R)-30-[[(2S)-1,4-dioxan-2-yl]methoxy]-1,18-dihydroxy-19-methoxy-12-[(1R)-2-[(1S,3R,4R)-3-methoxy-4-(2-methoxyethoxy)cyclohexyl]-1-methyl-ethyl]-15,17,21,23,29,35-hexamethyl-11,36-dioxa-4-azatricyclo[30.3.1.0^4,9]hexatriaconta-16,24,26,28-tetraene-2,3,10,14,20-pentone] are “Yes” and 0.001 to 0.01 µM.
Turning to `CO[C@@H]1/C(C)=C/[C@@H](C)C(=O)C[C@@H]([C@H](C)C[C@@H]2CC[C@@H](O)[C@H](OC)C2)OC(=O)[C@@H]2CCCCN2C(=O)C(=O)[C@]2(O)O[C@@H](CC[C@H]2C)C[C@H](OCC2COCCO2)/C(C)=C/C=C/C=C/[C@@H](C)C[C@@H](C)C(=O)[C@@H]1OC` (stereo partly drawn) [I-27, (25E,27E,29E,30E,33R,34S,35R,36R,38S,40S,42S,43S,45R,46R,55R)-42-(1,4-dioxan-2-ylmethoxy)-55-hydroxy-43-[(1R)-2-[(1S,3R,4R)-4-hydroxy-3-methoxy-cyclohexyl]-1-methyl-ethyl]-45,46-dimethoxy-33,34,35,36,47,48-hexamethyl-66,67-dioxa-56-azatricyclohexatriaconta-25,27,29(47),30(48)-tetraene-49,50,51,52,53-pentone], the “mTORC1 selective @ 24 hrs” value in assay [1] is “Yes”. In assay [2], the IC50 fell in the range of 0.01 to 0.1 µM.
